This note sets out measurements from publication PMC9574929, “Development of Hydrogen Sulfide-Releasing Carbonic Anhydrases IX- and XII-Selective Inhibitors with Enhanced Antihyperalgesic Action in a Rat Model of Arthritis” (Journal of Medicinal Chemistry, 2022).

One data set has as its target hCA I (Homo sapiens, UniProt P00915). Kind of data set: Stopped-flow CO2 hydrase assay, hCA I.
For another data set, the target named is hCA IX (Homo sapiens, UniProt Q16790). The data set is described as follows: Stopped-flow CO2 hydrase assay, hCA IX. The following applies: selectivity index, ratio of KIs.
Another data set has as its target hCA XII (Homo sapiens, UniProt O43570). Kind of data set: Stopped-flow CO2 hydrase assay, hCA XII. Conditions: selectivity index, ratio of KIs.
Another data set deals with hCA IV (Homo sapiens, UniProt P22748). Kind of data set: Stopped-flow CO2 hydrase assay, hCA IV. Conditions: selectivity index, ratio of KIs.
Another data set has as its system rats. The data set is described as follows: Toxicity and Irwin test. The data set is classed as in vivo, rat. Set-up: key to Irwin test: Spontaneous activity / Irwin test: Straightening reflex / Irwin test: Hypo-hyperthermia / Irwin test: Cleaning / Irwin test: Curiosity / Irwin test: Reactivity / Irwin test: Convulsions: observer's semiquantitative score (0 to +4, −4 to 0, or −4 to +4). The following applies: 30 mg/kg. As to the method: Toxicity was evaluated after a single acute administration of 26, 29, 30, and 31 at 30 mg/kg. […] For the Irwin test, each rat was individually placed in a transparent cage (26 × 41 cm), and 26 neurobehavioral or physiological parameters were systematically assessed according to Irwin (1968)[55] and already reported by Berrino and colleagues in similar studies.[30] Behavioral, autonomic, and neurological manifestations produced by compound administration in rats were evaluated: motor displacement, motor reflexes, stereotypies, grooming, reaction to painful or environmental stimuli (analgesia and irritability), startle response, secretions, excretions, respiratory movements, skin color and temperature, piloerection, exophthalmos, eyelid and corneal reflexes, muscle tone, ataxia, tremors, head twitches, jumps, convulsions, Straub tail, and other signs or symptoms. For postural reflexes (righting reflex) and other signs such as piloerection, exophthalmia (exaggerated protrusion of the eyeball), ataxia, tremors, and Straub tail, only presence or absence was recorded. Skin color was evaluated qualitatively (pale, red, or purple); other signs were evaluated semiquantitatively, according to the observer’s personal scale (0 to +4, −4 to 0, or −4 to +4). The terms sedation and excitation express the final interpretation of a group of signs: reduced motor activity, reduced startle response, eyelid ptosis, and reduced response to manual manipulation, for the former; and increased motor activity, increased startle response, increased response to manual manipulation, and exophthalmia, for the latter. Hyperactivity includes running, jumping, and attempting to escape from the container. Trained observers were not informed about the specific treatment of each animal group carried out in this test.

For data set [1], the system named is rat model of arthritis induced by the intra-articular injection of complete Freund's adjuvant (CFA). Kind of data set: Incapacitance test, CFA-induced arthritis. The data set is classed as in vivo. As to the method: (§1) Articular damage was induced by injection of Complete Freund’s Adjuvant (CFA; Sigma-Aldrich, St Louis, MO, USA), containing 1 mg/mL of heat-killed and dried Mycobacterium tuberculosis in paraffin oil and mannide monooleate, into the tibiotarsal joint.[50] Briefly, the rats were lightly anesthetized with 2% isoflurane, the left leg skin was sterilized with 75% ethyl alcohol, and the lateral malleolus was located by palpation. A 28-gauge needle was then inserted vertically to penetrate the skin and turned distally for insertion into the articular cavity at the gap between the tibiofibular and tarsal bone until a distinct loss of resistance was felt. A volume of 50 μL of CFA was then injected (day 0). Control rats received 50 μL of saline solution (day 0) in the tibiotarsal joint.
(§2) The hybrid derivatives 26, 29, 30, and 31 (1, 10, and 30 mg/kg) were suspended in a 1% solution of carboxymethylcellulose (CMC) sodium salt and acutely per os administered starting from day 14 after CFA i.a. injection, when arthritis was well established. The H2S releaser 3 and CAI 15 were also administered alone or in coadministration at the equimolar dose of compound 30 30 mg/kg (13.23 and 17.71 mg/kg, respectively). The antihypersensitivity effects were evaluated over time by the Paw pressure and Incapacitance tests.
Weight-bearing changes were measured using an incapacitance apparatus (Linton Instrumentation, Norfolk, U.K.) to detect changes in postural equilibrium after a hind limb injury.[53],[54] Rats were trained to stand on their hind paws in a box with an inclined plane (65° from horizontal). This box was placed above the incapacitance apparatus. This allowed us to independently measure the weight that the animal applied on each hind limb. The value reported for each animal is the mean of five consecutive measurements. In the absence of hind limb injury, rats applied an equal weight on both hind limbs, indicating postural equilibrium, whereas an unequal distribution of weight on the hind limbs indicated a monolateral decreased pain threshold. Data are expressed as the difference between the weight applied to the limb contralateral to the injury and the weight applied to the ipsilateral limb (Δ weight).

Data set [2] has the same test system. Kind of data set: Paw pressure test, CFA-induced arthritis. Conditions: day 14 after CFA. The data set is classed as in vivo. As to the method:
as §1, §2
The nociceptive threshold of rats was determined with an analgesimeter (Ugo Basile, Varese, Italy), according to the method described by Leighton et al.[51] and Maresca et al.,[52] (doi: 10.1111/jphp.12828). Briefly, a constantly increasing pressure was applied to a small area of the dorsal surface of the hind paw using a blunt conical probe by a mechanical device. Mechanical pressure was increased until vocalization or a withdrawal reflex occurred while rats were lightly restrained. Vocalization or withdrawal reflex thresholds were expressed in grams. […]

The mark [3] stands for this setting: S.N.C. excitement, limits 0 - 4.

“Also recorded” adds a separate entry of the source.

hCA IV, sequence (P22748 19-312): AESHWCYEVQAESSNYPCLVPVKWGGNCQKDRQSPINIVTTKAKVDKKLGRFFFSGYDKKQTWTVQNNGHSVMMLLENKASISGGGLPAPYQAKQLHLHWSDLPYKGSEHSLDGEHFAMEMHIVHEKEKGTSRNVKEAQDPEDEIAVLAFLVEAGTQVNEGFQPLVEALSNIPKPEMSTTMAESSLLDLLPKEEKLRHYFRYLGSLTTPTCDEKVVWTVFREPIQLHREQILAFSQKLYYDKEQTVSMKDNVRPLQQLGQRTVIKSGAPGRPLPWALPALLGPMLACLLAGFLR
hCA XII, sequence (O43570 25-354): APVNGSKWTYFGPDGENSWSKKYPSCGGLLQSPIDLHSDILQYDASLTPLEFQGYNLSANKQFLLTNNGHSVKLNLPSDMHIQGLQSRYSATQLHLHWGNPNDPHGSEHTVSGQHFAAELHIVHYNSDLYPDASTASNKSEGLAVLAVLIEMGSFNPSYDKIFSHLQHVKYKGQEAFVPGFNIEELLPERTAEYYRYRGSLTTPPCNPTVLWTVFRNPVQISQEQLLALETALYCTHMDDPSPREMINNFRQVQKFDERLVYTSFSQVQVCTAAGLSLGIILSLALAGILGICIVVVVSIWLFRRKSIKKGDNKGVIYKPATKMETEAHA
hCA I, sequence (P00915 whole entry): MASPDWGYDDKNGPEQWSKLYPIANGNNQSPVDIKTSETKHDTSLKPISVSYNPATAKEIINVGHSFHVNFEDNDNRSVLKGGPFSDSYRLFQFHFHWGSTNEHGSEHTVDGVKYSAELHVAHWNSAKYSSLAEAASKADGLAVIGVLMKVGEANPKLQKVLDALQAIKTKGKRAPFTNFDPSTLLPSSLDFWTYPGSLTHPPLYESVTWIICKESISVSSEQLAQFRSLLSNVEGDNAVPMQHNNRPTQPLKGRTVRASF
Description for hCA IV: (§3) The uncatalyzed rates were determined in the same manner and subtracted from the total observed rates. Stock solutions of inhibitor (0.1 mM) were prepared in distilled-deionized water and dilutions up to 0.01 nM were done thereafter with the assay buffer. […] The inhibition constants were obtained by nonlinear least-squares methods using PRISM 3 and the Cheng–Prusoff equation, as reported earlier,[39] and represent the mean from at least three different determinations.
Description for hCA IX: as §3
Description for hCA XII: as §3

Broadly, the Ki is a measure of affinity in units of concentration, obtained from inhibition or displacement. The term melting point denotes the temperature, or range, at which the solid turns liquid. Turning to `NS(=O)(=O)c1ccc(CCN(Cc2ccccc2)C(=O)c2ccc(-c3cssc3=S)cc2)cc1` [Compound 19, N-Benzyl-N-(4-sulfamoylphenethyl)-4-(3-thioxo-3H-1,2-dithiol-4-yl)benzamide], the melting point was 139 to 140 °C. Moreover, at hCA I, the Ki fell in the range of 771 to 890 nM. For the same molecule, on hCA IX, the “SI CA I/IX” value was 19.2 and the “SI CA II/IX” value came out at 11.1. Besides, at hCA XII, the “SI CA I/XII” value stood at 79.4 and the “SI CA II/XII” value is 49.5. Further, at hCA IV, the “SI CA I/IV” value amounted to 0.18 and the “SI CA II/IV” value worked out at 0.11.
In turn, `NS(=O)(=O)c1ccc(CCN(Cc2ccc([N+](=O)[O-])cc2)C(=O)c2ccc(-c3cssc3=S)cc2)cc1` [Compound 25, N-(4-Nitrobenzyl)-N-(4-sulfamoylphenethyl)-4-(3-thioxo-3H-1,2-dithiol-4-yl)benzamide] came in with a melting point of 223 to 224 °C. Moreover, at hCA IX, the “SI CA I/IX” value is recorded as 204 and the “SI CA II/IX” value is given as 25.1. For the same molecule, on hCA XII, the “SI CA I/XII” value amounted to 226 and the “SI CA II/XII” value is on record as 27.9. On hCA IV, the “SI CA I/IV” value is reported as <0.7 and the “SI CA II/IV” value was <0.09.
Take `COc1cc([N+](=O)[O-])ccc1CN(CCc1ccc(S(N)(=O)=O)cc1)C(=O)c1ccc(-c2cssc2=S)cc1` [Compound 26, N-(2-Methoxy-4-nitrobenzyl)-N-(4-sulfamoylphenethyl)-4-(3-thioxo-3H-1,2-dithiol-4-yl)benzamide]: at hCA IX, the “SI CA I/IX” value was 1633 and the “SI CA II/IX” value came out at 719. In addition, on hCA XII, the “SI CA I/XII” value is recorded as 870 and the “SI CA II/XII” value is given as 383. In the data set with rats (Autonomic signes, limits 0 - 4), the “Irwin test: Cyanosis” value was determined as 0, the “Irwin test: Exolphthalmos” value came out at 0, the “Irwin test: Flush” value stood at 0 and the “Irwin test: Lacrimation” value stood at 0. Also, in the data set with rats (Autonomic signes, limits 0 - 4), the “Irwin test: Pallor” value was 0, the “Irwin test: Piloerection” value came to 0, the “Irwin test: Salivation” value was 0 and the “Irwin test: Writhing” value was 0. Besides, in the data set with rats (Autonomic signes, limits 4 - 0), the “Irwin test: Palpebral opening” value is on record as 4. Moreover, the “Irwin test: Hypo-hyperthermia” value in the data set on rats (Autonomic signes, limits -4/+4) is 0. Besides, in the data set with rats (Behaviour, limits 0 - 4), the “Irwin test: Passivity” value is reported as 0 and the “Irwin test: Vocalization” value is 0. Moreover, in the data set with rats (Behaviour, limits 4 - 0), the “Irwin test: Cleaning” value was 0, the “Irwin test: Curiosity” value was determined as 4, the “Irwin test: Reactivity” value is reported as 4 and the “Irwin test: Spontaneous activity” value turned out to be 4. In addition, in the data set on rats (Movement, limits 0 - 4), the “Irwin test: Ataxia” value was 0 and the “Irwin test: Stereotipies” value was found to be 0. The “Irwin test: Straightening reflex” value in the data set on rats (Movement, limits 4 - 0) is on record as 4. The “Irwin test: Physical strenght” value with rats (Muscolar tone, limits 4 – 0) is given as 4. Moreover, the “Irwin test: Palpebral reflex” value with rats (Reflexes, limits 4 - 0) was determined as 4. For the same molecule, in the data set with rats (setting [3]), the “Irwin test: Straub tail” value was determined as 0 and the “Irwin test: Tremors” value is listed as 0. The “Irwin test: Convulsions” value in the data set with rats (S.N.C. excitement, limits 4 - 0) is on record as 0. Moreover, in the data set with rats (Toxicity, limits 0 - 4), the “Irwin test: Delayed death (48 h)” value is 0 and the “Irwin test: Immediate death” value is on record as 0. Besides, on hCA IV, the “SI CA I/IV” value is 1.6 and the “SI CA II/IV” value amounted to 0.7. Besides, in data set [1] (per os, 45 min after treatment), the “antihyperalgesic action at 45 min, Incapacitance test” value is on record as “almost completely reverting spontaneous pain after 45 min; also recorded: completely reverting pain 45 min after treatment”. The “reduction of spontaneous pain, Incapacitance test” value in data set [1] (single per os, 1 to 30 mg/kg, day 14 after CFA) is on record as “reduced spontaneous pain in a dose-dependent manner”. The “antihyperalgesic effect, Paw pressure test, 30 mg/kg” value in data set [2] (30 mg/kg per os) is recorded as “completely reverted the pain state 45 min after administration; also recorded: counteracted the mechanical hyperalgesia 45 min after injection; also recorded: completely reverting pain 45 min after treatment”. Further, the “antihypersensitivity effect, Paw pressure test” value in data set [2] (single per os, 1 to 30 mg/kg) is “evoked an antihypersensitivity effect in a dose-dependent manner”.
Turning to `COc1ccc(CN(CCc2ccc(S(N)(=O)=O)cc2)C(=O)c2ccc(-c3cssc3=S)cc2)cc1` [Compound 27, N-(4-Methoxybenzyl)-N-(4-sulfamoylphenethyl)-4-(3-thioxo-3H-1,2-dithiol-4-yl)benzamide], the melting point lay within 151 to 152 °C. At hCA IX, the “SI CA I/IX” value stood at 44.0 and the “SI CA II/IX” value amounted to 11.7. Further, on hCA XII, the “SI CA I/XII” value stood at 29.0 and the “SI CA II/XII” value came out at 7.7. Also, at hCA IV, the “SI CA I/IV” value is recorded as 1.4 and the “SI CA II/IV” value came out at 0.4.
`COc1ccc(CN(CCc2ccc(S(N)(=O)=O)cc2)C(=O)c2ccc(-c3cssc3=S)cc2)cc1OC` [Compound 28, N-(3,4-Dimethoxybenzyl)-N-(4-sulfamoylphenethyl)-4-(3-thioxo-3H-1,2-dithiol-4-yl)benzamide]: the melting point is 183 to 184 °C. This molecule displayed an inhibition constant (Ki) at hCA I of 771 to 890 nM. On hCA IX, the “SI CA I/IX” value is 47.9 and the “SI CA II/IX” value stood at 11.7. Besides, at hCA XII, the “SI CA I/XII” value is listed as 105 and the “SI CA II/XII” value was determined as 25.7. On hCA IV, the “SI CA I/IV” value was 3.0 and the “SI CA II/IV” value was 0.7.
For `NS(=O)(=O)c1ccc(CCN(CCc2ccccc2)C(=O)c2ccc(-c3cssc3=S)cc2)cc1` [Compound 32, N-Phenethyl-N-(4-sulfamoylphenethyl)-4-(3-thioxo-3H-1,2-dithiol-4-yl)benzamide], the melting point was in the range of 228 to 229 °C. At hCA IX, the “SI CA I/IX” value was found to be 34.9 and the “SI CA II/IX” value worked out at 5.3. Moreover, on hCA XII, the “SI CA I/XII” value is on record as 462 and the “SI CA II/XII” value is listed as 69.6. For the same molecule, at hCA IV, the “SI CA I/IV” value stood at 18.0 and the “SI CA II/IV” value worked out at 2.7.
